According to patent US20210070748A1, “INHIBITORS OF BRUTONS TYROSINE KINASE” (Pharmacyclics LLC, priority 2015, published 2021):
pIC50: −log10 of the molar value. Blank lines part the entries; values can stand above or below the compound they belong to.

What was measured:
BTK-WT = biological target: T1, BTK-WT (Homo sapiens, UniProt Q06187); experiment: Btk in vitro inhibitory activity (one of Method A TR-FRET, Method B electrophoretic mobility shift, Method C radiometric filter binding); assay type: biochemical; settings: D-compounds panel data; read-out: IC50 BTK-WT
T1 construct: purified from insect cells as a full-length construct containing an N-terminal 6X-His tag; His6 (N); made in house; host or cells: insect cells (baculovirus Sf21 in Method B)

SRC = SRC (Homo sapiens, UniProt P12931); experiment: Inhibition of a panel of kinases, in vitro HotSpot kinase assay: SRC; assay type: biochemical; settings: D-compounds panel data; 1 μM ATP
Description: The degree of inhibition of a panel of kinases is determined using the in vitro HotSpot kinase assay (purified enzymes, ^33P-ATP, an appropriate substrate and 1 μM ATP).

Sequence of SRC (P12931 whole entry): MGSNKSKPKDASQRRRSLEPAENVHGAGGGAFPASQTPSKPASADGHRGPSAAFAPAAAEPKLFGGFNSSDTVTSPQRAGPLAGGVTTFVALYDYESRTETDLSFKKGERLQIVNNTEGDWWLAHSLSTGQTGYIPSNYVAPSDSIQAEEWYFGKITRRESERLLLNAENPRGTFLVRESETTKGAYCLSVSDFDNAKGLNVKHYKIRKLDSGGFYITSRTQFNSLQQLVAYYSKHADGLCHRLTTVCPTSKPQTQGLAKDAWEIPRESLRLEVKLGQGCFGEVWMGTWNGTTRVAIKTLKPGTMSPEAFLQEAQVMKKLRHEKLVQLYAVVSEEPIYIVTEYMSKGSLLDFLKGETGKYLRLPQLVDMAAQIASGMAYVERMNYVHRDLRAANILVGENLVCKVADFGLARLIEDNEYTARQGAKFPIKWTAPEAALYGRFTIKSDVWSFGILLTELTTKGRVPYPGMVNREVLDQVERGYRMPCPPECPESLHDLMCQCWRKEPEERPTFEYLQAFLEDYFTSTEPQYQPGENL
T1 sequence (Q06187 whole entry): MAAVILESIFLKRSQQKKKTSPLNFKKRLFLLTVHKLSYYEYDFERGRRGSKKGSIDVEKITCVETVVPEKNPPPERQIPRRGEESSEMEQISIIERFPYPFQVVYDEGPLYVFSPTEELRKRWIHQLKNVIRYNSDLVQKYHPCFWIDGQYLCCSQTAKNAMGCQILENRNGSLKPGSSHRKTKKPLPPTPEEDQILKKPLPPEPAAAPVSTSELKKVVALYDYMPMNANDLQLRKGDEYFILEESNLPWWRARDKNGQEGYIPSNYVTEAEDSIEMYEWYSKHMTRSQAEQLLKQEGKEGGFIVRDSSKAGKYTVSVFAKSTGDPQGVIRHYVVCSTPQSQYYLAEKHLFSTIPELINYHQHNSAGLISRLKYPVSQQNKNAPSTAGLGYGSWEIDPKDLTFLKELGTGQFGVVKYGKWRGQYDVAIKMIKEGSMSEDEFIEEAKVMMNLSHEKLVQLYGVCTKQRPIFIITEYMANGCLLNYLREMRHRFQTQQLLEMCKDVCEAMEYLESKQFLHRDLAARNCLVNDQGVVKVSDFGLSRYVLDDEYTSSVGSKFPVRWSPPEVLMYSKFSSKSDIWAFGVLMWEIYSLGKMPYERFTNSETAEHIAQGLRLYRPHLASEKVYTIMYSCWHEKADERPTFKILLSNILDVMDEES

Compound: C[C@@H]1[C@H](NC(=O)c2ccc(C3CC3)c(Cl)c2)CCCN1c1cnc(C(N)=O)c(Nc2ccc(N3CCN(C)CC3)cc2)n1 [Example D-17, 5-[(2R,3R)-3-(3-chloro-4-cyclopropylbenzamido)-2-methylpiperidin-1-yl]-3-{[4-(4-methylpiperazin-1-yl)phenyl]amino}pyrazine-2-carboxamide]
pIC50 (BTK-WT): ≥ 8.00 | pIC50 (SRC): 6.00 to 7.00

Compound: CC1(c2ccc(Nc3nc(N4CCC[C@@H](n5ccc6cc(C7CC7)ccc6c5=O)C4)cnc3C(N)=O)cc2)CCN(C2CCCC2)CC1 [Example D-177, 3-{[4-(1-cyclopentyl-4-methylpiperidin-4-yl)phenyl]amino}-5-[(3R)-3-(6-cyclopropyl-1-oxo-1,2-dihydroisoquinolin-2-yl)piperidin-1-yl]pyrazine-2-carboxamide]
pIC50 (BTK-WT): ≥ 8.00 | pIC50 (SRC): 7.00 to 8.00

Compound: Cc1cc(Nc2cc(N3CCC[C@@H](NC(=O)N(C)C)[C@H]3C)cnc2C(N)=O)sn1 [Example D-175, 5-[(2R,3R)-3-[(dimethylcarbamoyl)amino]-2-methylpiperidin-1-yl]-3-[(3-methyl-1,2-thiazol-5-yl)amino]pyridine-2-carboxamide]
pIC50 (BTK-WT): 7.00 to 8.00 | pIC50 (SRC): 6.00 to 7.00

Compound: Cn1cc(Nc2nc(N3CCC[C@@H](NC(=O)c4ccc(C5CC5)cc4)C3)nnc2C(N)=O)cn1 [Example D-195, 3-[(3R)-3-(4-cyclopropylbenzamido)piperidin-1-yl]-5-[(1-methyl-1H-pyrazol-4-yl)amino]-1,2,4-triazine-6-carboxamide]
pIC50 (BTK-WT): ≥ 8.00 | pIC50 (SRC): 6.00 to 7.00

Compound: CN1CCN(c2ccc(Nc3nc(N4CCC[C@@H](n5ccc6cc(C7CC7)ccc6c5=O)C4)cnc3C(N)=O)nc2)CC1 [Example D-179, 5-[(3R)-3-(6-cyclopropyl-1-oxo-1,2-dihydroisoquinolin-2-yl)piperidin-1-yl]-3-{[5-(4-methylpiperazin-1-yl)pyridin-2-yl]amino}pyrazine-2-carboxamide]
pIC50 (BTK-WT): 6.00 to 7.00 | pIC50 (SRC): < 5.00

Compound: C[C@@H]1[C@H](NC(=O)c2ncc(C3CC3)cn2)CCCN1c1cnc(C(N)=O)c(Nc2cnn(C)c2)n1 [Example D-198, 5-[(2R,3R)-3-(5-cyclopropylpyrimidine-2-amido)-2-methylpiperidin-1-yl]-3-[(1-methyl-1H-pyrazol-4-yl)amino]pyrazine-2-carboxamide]
pIC50 (BTK-WT): ≥ 8.00 | pIC50 (SRC): 7.00 to 8.00

Compound: C[C@@H]1[C@H](NC(=O)c2ccc(C3CC3)cc2F)CCCN1c1cnc(C(N)=O)c(Nc2ccc(N3CCN(C)C[C@@H]3C)cc2)n1 [Example D-12, 5-[(2R,3R)-3-(4-cyclopropyl-2-fluorobenzamido)-2-methylpiperidin-1-yl]-3-({4-[(2S)-2,4-dimethylpiperazin-1-yl]phenyl}amino)pyrazine-2-carboxamide]
pIC50 (BTK-WT): ≥ 8.00 | pIC50 (SRC): 6.00 to 7.00

Compound: CN1CCN(c2ccc(Nc3nc(N4CCC[C@@H](n5ccc6cc(C7CC7)cc(F)c6c5=O)C4)cnc3C(N)=O)cc2)CC1 [Example D-174, 5-[(3R)-3-(6-cyclopropyl-8-fluoro-1-oxo-1,2-dihydroisoquinolin-2-yl)piperidin-1-yl]-3-{[4-(4-methylpiperazin-1-yl)phenyl]amino}pyrazine-2-carboxamide]
pIC50 (BTK-WT): ≥ 8.00 | pIC50 (SRC): 7.00 to 8.00

Compound: Cn1cc(Nc2nc(N3CC(NC(=O)c4ccc(C5CC5)cc4)CC(F)(F)C3)cnc2C(N)=O)cn1 (stereo in doubt) [Example D-190, 5-[(5S)-5-(4-cyclopropylbenzamido)-3,3-difluoropiperidin-1-yl]-3-[(1-methyl-1H-pyrazol-4-yl)amino]pyrazine-2-carboxamide]
pIC50 (BTK-WT): ≥ 8.00 | pIC50 (SRC): 6.00 to 7.00

Compound: C[C@@H]1[C@H](NC(=O)c2ccc(N(C)C)cc2)CCCN1c1cnc(C(N)=O)c(Nc2ccc(N3CCN(C)CC3)cc2)n1 [Example D-196, 5-[(2R,3R)-3-[4-(dimethylamino)benzamido]-2-methylpiperidin-1-yl]-3-{[4-(4-methylpiperazin-1-yl)phenyl]amino}pyrazine-2-carboxamide]
pIC50 (BTK-WT): ≥ 8.00 | pIC50 (SRC): 7.00 to 8.00

Compound: C[C@@H]1[C@H](NC(=O)c2ccc(C3CC3)cc2F)CCCN1c1cnc(C(N)=O)c(Nc2ccc(N3CCN(C)CC3)nc2)n1 [Example D-13, 5-[(2R,3R)-3-(4-cyclopropyl-2-fluorobenzamido)-2-methylpiperidin-1-yl]-3-{[6-(4-methylpiperazin-1-yl)pyridin-3-yl]amino}pyrazine-2-carboxamide]
pIC50 (BTK-WT): ≥ 8.00 | pIC50 (SRC): 6.00 to 7.00

Compound: Cn1cc(Nc2nc(N3CCC[C@@H](NC(=O)c4ccc(C5CC5)cc4)C3)cnc2C(N)=O)cn1 [Example D-191, 5-[(3R)-3-(4-cyclopropylbenzamido)piperidin-1-yl]-3-[(1-methyl-1H-pyrazol-4-yl)amino]pyrazine-2-carboxamide]
pIC50 (BTK-WT): 7.00 to 8.00 | pIC50 (SRC): 6.00 to 7.00

Compound: Cn1cc(Nc2nc(N3C4CCC(NC(=O)c5ccc(C6CC6)cc5)C3CC4)cnc2C(N)=O)cn1 (single isomer, unassigned) [Example D-202, 5-[2-(4-cyclopropylbenzamido)-8-azabicyclo[3.2. I]octan-8-yl]-3-[(1-methyl-1H-pyrazol-4-yl)amino]pyrazine-2-carboxamide]
pIC50 (BTK-WT): 7.00 to 8.00 | pIC50 (SRC): 6.00 to 7.00

Compound: C[C@@H]1[C@H](NC(=O)c2ccc(S(C)(=O)=O)cc2)CCCN1c1cnc(C(N)=O)c(Nc2ccc(N3CCN(C)CC3)cc2)n1 [Example D-227, 5-[(2R,3R)-3-(4-methanesulfonylbenzamido)-2-methylpiperidin-1-yl]-3-{[4-(4-methylpiperazin-1-yl)phenyl]amino}pyrazine-2-carboxamide]
pIC50 (BTK-WT): ≥ 8.00 | pIC50 (SRC): ≥ 8.00

Compound: C[C@@H]1[C@H](NC(=O)c2ccc(N(C)C)cc2)CCCN1c1cnc(C(N)=O)c(Nc2ccc(C3(C)CCN(C4CCCC4)CC3)cc2)n1 [Example D-183, 3-{[4-(1-cyclopentyl-4-methylpiperidin-4-yl)phenyl]amino}-5-[(2R,3R)-3-[4-(dimethylamino)benzamido]-2-methylpiperidin-1-yl]pyrazine-2-carboxamide]
pIC50 (BTK-WT): ≥ 8.00 | pIC50 (SRC): ≥ 8.00

Compound: C[C@@H]1[C@H](NC(=O)c2ccc(C(C)(O)C(F)(F)F)cc2)CCCN1c1cnc(C(N)=O)c(Nc2cnn(C)c2)n1 (single isomer, unassigned) [Example D-213]
pIC50 (BTK-WT): ≥ 8.00 | pIC50 (SRC): 7.00 to 8.00

Compound: C/C=C/c1ccc(C(=O)N[C@@H]2CCCN(c3cnc(C(N)=O)c(Nc4cc(C)ns4)c3)[C@@H]2C)c(F)c1 [Example D-170, 5-[(2R,3R)-3-{2-fluoro-4-[(1E)-prop-1-en-1-yl]benzamido}-2-methylpiperidin-1-yl]-3-[(3-methyl-1,2-thiazol-5-yl)amino]pyridine-2-carboxamide]
pIC50 (BTK-WT): 7.00 to 8.00 | pIC50 (SRC): 6.00 to 7.00

Results, then the compound that gave them:

pIC50 (BTK-WT): ≥ 8.00 | pIC50 (SRC): 7.00 to 8.00
Compound: C[C@@H]1[C@H](NC(=O)c2ccc3scnc3c2)CCCN1c1cnc(C(N)=O)c(Nc2cnn(C)c2)n1 [Example D-237, N-[(2R,3R)-1-{5-carbamoyl-6-[(1-methyl-1H-pyrazol-4-yl)amino]pyrazin-2-yl}-2-methylpiperidin-3-yl]-1,3-benzothiazole-5-carboxamide]

pIC50 (BTK-WT): 5.00 to 6.00 | pIC50 (SRC): 5.00 to 6.00
Compound: Cn1cc(Nc2nc(N3CCC(F)(F)[C@H](NC(=O)c4ccc(C5CC5)cc4)C3)cnc2C(N)=O)cn1 [Example D-192, 5-[(3R)-3-(4-cyclopropylbenzamido)-4,4-difluoropiperidin-1-yl]-3-[(1-methyl-1H-pyrazol-4-yl)amino]pyrazine-2-carboxamide]

pIC50 (BTK-WT): ≥ 8.00 | pIC50 (SRC): 7.00 to 8.00
Compound: C[C@@H]1[C@H](NC(=O)c2ccc(C(C)(O)C(F)(F)F)cc2)CCCN1c1cnc(C(N)=O)c(Nc2cnn(C)c2)n1 (single isomer, unassigned) [Example D-214]

pIC50 (BTK-WT): 7.00 to 8.00 | pIC50 (SRC): 6.00 to 7.00
Compound: CN1CCN([C@@H]2CCCN(c3cnc(C(N)=O)c(Nc4cnn(C)c4)n3)C2)C1=O [Example D-209, 3-[(1-methyl-1H-pyrazol-4-yl)amino]-5-[(3R)-3-(3-methyl-2-oxoimidazolidin-1-yl)piperidin-1-yl]pyrazine-2-carboxamide]

pIC50 (BTK-WT): ≥ 8.00 | pIC50 (SRC): 7.00 to 8.00
Compound: C[C@@H]1[C@H](NC(=O)c2ccc(C3CC3)cc2F)CCCN1c1cnc(C(N)=O)c(Nc2cc(CN3CCCCC3)ns2)n1 [Example D-176, 5-[(2R,3R)-3-(4-cyclopropyl-2-fluorobenzamido)-2-methylpiperidin-1-yl]-3-{[3-(piperidin-1-ylmethyl)-1,2-thiazol-5-yl]amino}pyrazine-2-carboxamide]

pIC50 (BTK-WT): 7.00 to 8.00 | pIC50 (SRC): 6.00 to 7.00
Compound: C[C@@H]1[C@H](NC(=O)c2ccc(C3CC3)cc2)CCCN1c1cnc(C(N)=O)c(Nc2cnn(CCN(C)C)c2)n1 [Example D-187, 5-[(2R,3R)-3-(4-cyclopropylbenzamido)-2-methylpiperidin-1-yl]-3-({1-[2-(dimethylamino)ethyl]-1H-pyrazol-4-yl}amino)pyrazine-2-carboxamide]

pIC50 (BTK-WT): ≥ 8.00 | pIC50 (SRC): 6.00 to 7.00
Compound: CN1CCN(C(=O)c2ccc(Nc3nc(N4CCC[C@@H](n5ccc6cc(C7CC7)ccc6c5=O)C4)cnc3C(N)=O)cc2)CC1 [Example D-169, 5-[(3R)-3-(6-cyclopropyl-1-oxo-1,2-dihydroisoquinolin-2-yl)piperidin-1-yl]-3-{[4-(4-methylpiperazine-1-carbonyl)phenyl]amino}pyrazine-2-carboxamide]

pIC50 (BTK-WT): ≥ 8.00 | pIC50 (SRC): 7.00 to 8.00
Compound: C[C@@H]1[C@H](NC(=O)c2ccc(C3CC3)cc2)CCCN1c1cnc(C(N)=O)c(Nc2cnn(C3CCN(C)CC3)c2)n1 [Example D-185, 5-[(2R,3R)-3-(4-cyclopropylbenzamido)-2-methylpiperidin-1-yl]-3-{[1-(1-methylpiperidin-4-yl)-1H-pyrazol-4-yl]amino}pyrazine-2-carboxamide]

pIC50 (BTK-WT): ≥ 8.00 | pIC50 (SRC): 7.00 to 8.00
Compound: C[C@@H]1[C@H](NC(=O)c2ccc(C3CC3)nc2)CCCN1c1cnc(C(N)=O)c(Nc2cnn(C)c2)n1 [Example D-18, 5-[(2R,3R)-3-(6-cyclopropylpyridine-3-amido)-2-methylpiperidin-1-yl]-3-[(1-methyl-1H-pyrazol-4-yl)amino]pyrazine-2-carboxamide]
